# Columns and labels:
# [1] = system: H2087-TLISSLMPI (SEQ ID NO: 2) subcutaneous tumor; test: DC vaccine infected with recombinant lentivirus containing peptide gene in H2087-[…] tumor model; type: in vivo, NOD/SCID mice; conditions: DC infected with lentivirus carrying peptide gene, 2 injections
# Description: The following DNA sequences were synthesized: “[…]” (SEQ ID NO: 8), encoding the wild-type peptide […] (SEQ ID NO: 1); “[…]” (SEQ ID NO: 9), encoding the mutant peptide […] (SEQ ID NO: 2); “[…]” (SEQ ID NO: 10), encoding the SEQ ID NO: 2 […]'s variant peptide […] (SEQ ID NO: 3); “[…]” (SEQ ID NO: 11), encoding the SEQ ID NO: 2 […]'s variant peptide […] (SEQ ID NO: 4); “[…]” (SEQ ID NO: 12), encoding the SEQ ID NO: 2 […]'s variant peptide […] (SEQ ID NO: 5); “[…]” (SEQ ID NO: 13), encoding the SEQ ID NO: 2 […]'s variant peptide […] (SEQ ID NO: 6); and “[…]” (SEQ ID NO: 14), encoding the SEQ ID NO: 2_[…]'s variant peptide […] (SEQ ID NO: 7). The wild-type peptide […] (SEQ ID NO: 1), the mutant peptide […] (SEQ ID NO: 2) and the mutant peptide SEQ ID NO: 2 […]'s variant peptides were constructed into the lentiviral vector pHBLV-Puro, respectively, to name as pHBLV-Puro-[…] (SEQ ID NO: 1), pHBLV-Puro-[…] (SEQ ID NO: 2), pHBLV-Puro-[…] (SEQ ID NO: 3), pHBLV-Puro-[…] (SEQ ID NO: 4), pHBLV-Puro-[…] (SEQ ID NO: 5), pHBLV-Puro-[…] (SEQ ID NO: 6) and pHBLV-Puro-[…] (SEQ ID NO: 7), respectively. The seven lentiviral constructs were co-transfected into 293T cells with helper plasmids pSPAX2 and pMD2G for packaging, and lentiviruses of the wild-type peptide […] (SEQ ID NO: 1), the mutant peptide […] (SEQ ID NO: 2) and the mutant peptide's variant peptides were obtained.
# 600-900 ml of anticoagulated peripheral blood was collected from healthy volunteers for isolating peripheral blood mononuclear cells (PBMCs) via Ficoll. Cells were collected for use. 2×10^7 PBMCs per 0.5 ml was intraperitoneally injected into each of 300 NOD SCID mice without immune leakage to perform human immune reconstitution in NOD SCID mice. […]
# The human non-small cell lung adenocarcinoma cell line H2087-[…] […] The long diameter a and the short diameter b of the tumor were measured with a vernier caliper every 2-3 days and the size of the tumor was calculated as a*b*b/2. The mice and tumors were weighed and recorded every day. […] The tumor volume and the survival rate of mice were recorded every 2 days. […]
# [2] = system: CD8+ T cells; test: ELISPOTs detection of IFN-γ secretion by peptide-specific CD8+ T cells; type: cell-based, human; conditions: for Conclusion (immunogenicity): ELISPOTs; for Number of spots in the mutant peptide group / Number of spots in the wild-type peptide group: T cells activated by the listed peptide, 20 h; for Number of spots in the mutant peptide group: T2 cells loaded with TLISSLMPI; for Number of spots in the wild-type peptide group: T2 cells loaded with TLISSLRPI
# Description: In this example, a ELISPOTs detection kit (Cat. No.: 3420-4AST-10, MABTECH) was used to verify the activation of an immune response of CD8+ T cells by the peptides of the present invention.
# Principle of the ELISPOTs detection method is as follows: CD8+ T cells can specifically recognize the complex of HLA-A0201 and a peptide. The population of T cells recognizing the complex of the peptide and HLA-A0201 is varying, depending on the peptide sequence. Since T2 cells express HLA-A0201, CD8+ T cells can specifically recognize the T2 cells loaded with a peptide. After specific recognition of the complex of HLA-A0201 and the peptide, peptide-specific CD8+ T cells can be activated again to secrete IFN-γ interferon. The IFN-γ interferon secreted by the activated CD8+ T cells can be captured by antibodies on the ELISPOTs plate. Finally, the enzyme-conjugated antibody that recognizes IFN-γ can degrade the substrate through the enzyme conjugated thereto and develop color, eventually producing spots. The number of spots represents the number of cells that are activated to secrete IFN-γ interferon.
# The cultured cells from Example 3 were added, along with T2 cells loaded with the mutant peptide […] (SEQ ID NO: 2) of the present invention and the wild-type peptide […] (SEQ ID NO: 1), respectively, into ELISPOTs plates, and cultured for 20 h, and then a ELISPOTs detection was performed (see the kit instruction). Finally, the spots produced by the ELISPOTs detection were counted.
# The peptide was determined to have immunogenicity when the number of spots of the tested peptide/the number of spots of an unrelated peptide>2; that is, if the number of spots caused by the tested peptide is more than twice than that of an unrelated peptide, the tested peptide is determined to have immunogenicity.
# [3] = system: T2 cells; test: LDH release assay, killing of peptide-loaded T2 target cells by CD8+ T cells; type: cell-based, human; conditions: 4 h
# Method: The cells cultured in Example 3 were co-cultured with T2 cells loaded with the mutant peptides of the present invention or the wild-type peptide or without a peptide. A maximum release well, a volume correction well, a medium control well, a spontaneous release well and control wells for example at different effector-to-target ratios (ratios of T cells to T2 cells) were set in this experiment. Three replicate wells were set for each group. After 4 h, 50 μl of the co-culture supernatant was taken out and added to 50 μl of LDH substrate mixture to catalyze the reaction of LDH substrate. Finally, the plates were read at a wavelength of 490 nm, with a reference wavelength of 680 nm, and the killing activity against target cells T2 was calculated based on the control wells.
# The formula for calculating the killing activity is: Killing efficiency (%)=(test well−spontaneous release of effector cells−spontaneous release of target cells+medium well)/(maximum release of target cells−volume correction well−spontaneous release of target cells+medium well)×100%
# [4] = system: CD8+ T cells; test: ELISPOTs detection of IFN-γ secretion by peptide-specific CD8+ T cells; type: cell-based, human; conditions: ratio of spot numbers; >2 immunogenic
# [5] = effector-to-target ratio 1:1, target T2 loaded with TLISSLMPI
# [6] = effector-to-target ratio 1:1, target T2 loaded with wild-type TLISSLRPI
# [7] = effector-to-target ratio 10:1, target T2 loaded with TLISSLMPI
# [8] = effector-to-target ratio 10:1, target T2 loaded with wild-type TLISSLRPI
Sequence,Tumor-suppressing effect [1],Conclusion (immunogenicity) [2],Number of spots in the mutant peptide group [2],Number of spots in the wild-type peptide group [2],"Killing efficiency [3, 5] [%]","Killing efficiency [3, 6] [%]","Killing efficiency [3, 7] [%]","Killing efficiency [3, 8] [%]",Fold (tested/wild-type) [4]
"TLISSLRPI [wild-type CACNA1H peptide used as comparison, reference compound]",no effect on this tumor,,,,,,,,
TMISSLMPV,,immunogenic,345,35,9.32,3.51,47.35,6.31,9.86
TMISSLMPI,,immunogenic,321,27,8.33,2.85,41.16,5.13,11.88
TLISSLMPL,,immunogenic,317,37,8.23,3.12,39.66,5.71,8.57
TLISSLMPV,,immunogenic,325,41,8.56,2.57,43.82,4.73,7.93
TMISSLMPL,,immunogenic,338,39,9.12,3.13,45.23,5.83,8.67

# — patent US11548925B2, “CACNA1H-derived tumor antigen polypeptide and use thereof” (Genoimmune Therapeutics Co., Ltd., priority 2016, dated 2023)
